Test results as given in patent publication US11076595B2, “1-(n,n-disubstituted carbamoyl) 4-(substituted sulfonyl)triazolin-5-one derivative, 4-(n,n-disubstituted carbamoyl) 1-(substituted sulfonyl)triazolin-5-one derivative, and herbicide containing said derivative as active ingredient” (HOKKO CHEMICAL INDUSTRY CO., LTD., priority 2017, dated 2021).

What was measured:
Format in all cases: in vivo
Echinochloa crus-galli [1] = assay: Test Example 11: herbicidal effect test by soil treatment in paddy field; conditions: 120 g/10a active ingredient, 14 days after treatment
Text: (§1) A Wagner pot having an area of 1/10000 are was filled with paddy field soil and after adding water, a chemical fertilizer (N:P:K=17:17:17) was mixed, followed by puddling. Thereafter, 30 grains of each of Echinochloa crus-galli, broad-leaved weed (Lindernia pyxidaria, Monochoria vaginalis) and Scirpus juncoides seeds were sown to a depth of 0 to 1 cm. Immediately after the sowing, the pot was flooded, and the depth of water was kept at about 3 cm. The pot was subsequently managed in a glass greenhouse. Just after that, an emulsifiable concentrate prepared according to Formulation Example 15 by using the compound shown in Table 9 below was diluted with water, and a predetermined amount of the water-diluted formulation was added dropwise. The application rate of the active ingredient, by conversion, corresponded to 120 g per 10 are.
(§2) This test was performed with two replications per one formulation concentration plot, and 14 days after the formulation treatments, the weed suppression rate (%) was determined according to the following equation (Math. 2). Weed suppression rate (%)=(1−average dry weight (g) of plants in treated plots/average dry weight (g) of plants in untreated plots)×100 [Math. 2]

Lindernia pyxidaria [2] = assay: as above; conditions: 120 g/10a active ingredient, 14 days after treatment
Text: as §1, §2

Monochoria vaginalis [3] = assay: as above; conditions: 120 g/10a active ingredient, 14 days after treatment
Text: as §1, §2

Scirpus juncoides [4] = assay: as above; conditions: 120 g/10a active ingredient, 14 days after treatment
Text: as §1, §2

Echinochloa crus-galli [5] = assay: Test Example 12: herbicidal effect test by treatment during growing period in paddy field; conditions: 120 g/10a; treatment seven days after sowing in flooded paddy pot; assessed 14 days after treatment
Method: as §2
as §1, with “Seven Days” for “Just”, “sowing,” for “that,”, “10” for “9”, “are. The test was performed with two replications per one formulation concentration plot, and 14 days after the formulation treatments, the weed suppression rate (%) was determined according to the equation (Math. 2).” for “are.”

Lindernia pyxidaria [6] = assay: as above; conditions: 120 g/10a; treatment seven days after sowing in flooded paddy pot; assessed 14 days after treatment
Method: as §2
as §1, with “Seven Days” for “Just”, “sowing,” for “that,”, “10” for “9”, “are. The test was performed with two replications per one formulation concentration plot, and 14 days after the formulation treatments, the weed suppression rate (%) was determined according to the equation (Math. 2).” for “are.”

Monochoria vaginalis [7] = assay: as above; conditions: 120 g/10a; treatment seven days after sowing in flooded paddy pot; assessed 14 days after treatment
Method: as §2
as §1, with “Seven Days” for “Just”, “sowing,” for “that,”, “10” for “9”, “are. The test was performed with two replications per one formulation concentration plot, and 14 days after the formulation treatments, the weed suppression rate (%) was determined according to the equation (Math. 2).” for “are.”

Scirpus juncoides [8] = assay: as above; conditions: 120 g/10a; treatment seven days after sowing in flooded paddy pot; assessed 14 days after treatment
Method: as §2
as §1, with “Seven Days” for “Just”, “sowing,” for “that,”, “10” for “9”, “are. The test was performed with two replications per one formulation concentration plot, and 14 days after the formulation treatments, the weed suppression rate (%) was determined according to the equation (Math. 2).” for “are.”

SMILES | Weed suppression rate (%) Echinochloa crus-galli (Echinochloa crus-galli [1]) | Weed suppression rate (%) Lindemia pyxidaria (Lindernia pyxidaria [2]) | Weed suppression rate (%) Monochoria vaginalis (Monochoria vaginalis [3]) | Weed suppression rate (%) Scirpus juncoides (Scirpus juncoides [4]) | Weed suppression rate (%) Echinochloa crus-galli (Echinochloa crus-galli [5]) | Weed suppression rate (%) Lindemia pyxidaria (Lindernia pyxidaria [6]) | Weed suppression rate (%) Monochoria vaginalis (Monochoria vaginalis [7]) | Weed suppression rate (%) Scirpus juncoides (Scirpus juncoides [8])
Cc1cc(Cl)ccc1N(C(=O)n1cnn(S(=O)(=O)N(C)C)c1=O)C(C)C [Compound 11-1079] | 90% | 80% | 80% | 90% | 90% | 80% | 80% | 90%
Cc1nn(S(=O)(=O)C2CC2)c(=O)n1C(=O)N(c1ccc(F)cc1F)C(C)C [Compound 11-246] | 90% | 80% | 80% | 90% | 90% | 80% | 80% | 90%
CC(C)N(C(=O)n1cnn(S(=O)(=O)c2ccccc2F)c1=O)c1cccc(F)c1F [Compound 11-401] | 100% | 100% | 100% | 90% | 100% | 80% | 100% | 100%
Cc1ccc(S(=O)(=O)n2ncn(C(=O)N(c3ccc(F)c(F)c3F)C(C)C)c2=O)cc1 [Compound 11-640] | 100% | 100% | 70% | 90% | 80% | 70% | 100% | 90%
CCN(C(=O)n1cnn(S(=O)(=O)c2ccccc2)c1=O)C1CCCCC1 [Compound 11-353] | 90% | 80% | 80% | 90% | 90% | 80% | 80% | 90%
Cc1ccc(N(C(=O)n2cnn(S(=O)(=O)c3cccc(C(F)(F)F)c3)c2=O)C(C)C)c(F)c1 [Compound 11-737] | 90% | 80% | 80% | 90% | 90% | 80% | 80% | 90%
CC(C)N(C(=O)n1cnn(S(=O)(=O)C(C)C)c1=O)c1cccc(F)c1 [Compound 11-50] | 90% | 80% | 80% | 90% | 90% | 80% | 80% | 90%
Cc1cc(F)ccc1N(C(=O)n1cnn(S(=O)(=O)c2ccc(Cl)cc2)c1=O)C(C)C [Compound 11-601] | 70% | 80% | 80% | 60% | 60% | 70% | 70% | 60%
Cc1ccc(S(=O)(=O)n2ncn(C(=O)N(c3c(F)c(F)cc(F)c3F)C(C)C)c2=O)cc1 [Compound 11-642] | 100% | 80% | 70% | 70% | 100% | 70% | 90% | 100%
Cc1cc(C)c(S(=O)(=O)n2ncn(C(=O)N(c3ccc(F)cc3)C(C)C)c2=O)c(C)c1 [Compound 11-855] | 100% | 90% | 90% | 90% | 80% | 60% | 80% | 80%
CC(C)S(=O)(=O)n1ncn(C(=O)N(C)c2ccc(F)cc2F)c1=O [Compound 11-1127] | 100% | 80% | 70% | 80% | 100% | 70% | 70% | 100%
CC(C)N(C(=O)n1cnn(S(=O)(=O)c2ccc(F)cc2)c1=O)c1ccc(Br)cc1Cl [Compound 11-486] | 90% | 90% | 80% | 80% | 60% | 70% | 70% | 60%
CC(C)N(C(=O)n1cnn(S(=O)(=O)c2cccs2)c1=O)c1ccc(Cl)cc1Br [Compound 11-1034] | 100% | 90% | 70% | 100% | 90% | 70% | 70% | 70%
CC(C)N(C(=O)n1cnn(S(=O)(=O)c2cccs2)c1=O)c1ccc(F)cc1 [Compound 11-1014] | 90% | 90% | 80% | 90% | 90% | 80% | 80% | 90%
Cc1cc(C)c(S(=O)(=O)n2ncn(C(=O)N(c3ccc(Cl)cn3)C(C)C)c2=O)c(C)c1 [Compound 11-889] | 100% | 100% | 80% | 90% | 100% | 70% | 80% | 90%
Cc1cc(C)c(S(=O)(=O)n2ncn(C(=O)N(c3ccc(F)c(F)c3F)C(C)C)c2=O)c(C)c1 [Compound 11-866] | 100% | 100% | 90% | 90% | 80% | 70% | 90% | 60%
CC(C)N(C(=O)n1cnn(S(=O)(=O)C(C)C)c1=O)c1ccc(Br)cc1Cl [Compound 11-70] | 100% | 100% | 90% | 100% | 100% | 70% | 90% | 100%
Cc1ccc(S(=O)(=O)n2ncn(C(=O)N(c3ccc(C)cc3F)C(C)C)c2=O)cc1 [Compound 11-651] | 90% | 90% | 90% | 90% | 90% | 80% | 80% | 90%
